pEC50: −log10 of the molar value.
Columns and labels:
[1] = In vitro cytotoxicity assay (MTT cell viability) in HepG2 cells; type: cell-based, human; details: human
Method in brief: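 HepG2 seeded overnight, then 7-day compound exposure (30 μM–1.0 nM, half-log steps), 37 °C. MTT 3-4 h, DMSO solubilization, A492. % of vehicle → CC50, 4-PL fit.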

[2] = tested on: HBV replication in HepAD38 cells; experiment: Anti-HBV replication assay in HepAD38 cells (QPCR of extracellular HBV DNA); type: cell-based, HBV (genotype D, serotype ayw); details: Hepatitis B virus, 168 h, 7 days incubation, extracellular HBV DNA by QPCR, read-out: Anti-HBV EC50
Method in brief: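 HepAD38 cells (HepG2 carrying tet-repressible HBV genotype D genome) induced by tetracycline withdrawal, treated 7 days at 37 °C with compound ([…], 1-log10 dilutions). Extracellular HBV DNA quantified by QPCR against a standard curve, normalised to DMSO; EC50 from 4-parameter fit.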

Compound	CC50 at 7 days [1]	pEC50 [2]
Cc1cc(NC(=O)c2c(C)c(C(=O)C(=O)NC3(C)CCN(c4ccncn4)CC3)n(C)c2C)ccc1F [Example 717]	5 to 30 µM	> 7.30
Cc1cc(NC(=O)c2c(Cl)c(C(=O)C(=O)NC(C)(C)C)n(C)c2C)ccc1F [Example 363, 5-(2-(tert-butylamino)-2-oxoacetyl)-4-chloro-N-(4-fluoro-3-methylphenyl)-1,2-dimethyl-1H-pyrrole-3-carboxamide]	> 30 µM	> 7.30
Cc1c(C(=O)Nc2ccc(F)c(Cl)c2)c2n(c1C(=O)C(=O)NC1(CO)CCC1)CCCC2 [Example 452, N-(3-chloro-4-fluorophenyl)-3-(2-((1-(hydroxymethyl)cyclobutyl)amino)-2-oxoacetyl)-2-methyl-5,6,7,8-tetrahydroindolizine-1-carboxamide]	5 to 30 µM	> 7.30
Cc1cc(NC(=O)c2c(C)c(C(=O)C(=O)N[C@H]3CCCN(S(C)(=O)=O)C3)n(C)c2C)ccc1F [Example 642, (S)-N-(4-fluoro-3-methylphenyl)-1,2,4-trimethyl-5-(2-((1-(methylsulfonyl)piperidin-3-yl)amino)-2-oxoacetyl)-1H-pyrrole-3-carboxamide]	5 to 30 µM	> 7.30
Cc1cc(NC(=O)c2c(C)c(C(=O)C(=O)NC3CCN(c4ccccn4)CC3)n(C)c2C)ccc1F [Example 657, N-(44-fluoro-3-methylphenyl)-1,2,4-trimethyl-5-(2-oxo-2-((1-(pyridin-2-yl)piperidin-4-yl)amino)acetyl)-1H-pyrrole-3-carboxamide]	5 to 30 µM	> 7.30
Cc1noc([C@H](C)NC(=O)C(=O)c2c(Cl)c(C(=O)Nc3ccc(F)c(Cl)c3)c3n2CCCC3)n1 [Example 523, (S)-2-chloro-N-(3-chloro-4-fluorophenyl)-3-(2-((1-(3-methyl-1,2,4-oxadiazol-5-yl)ethyl)amino)-2-oxoacetyl)-5,6,7,8-tetrahydroindolizine-1-carboxamide]	5 to 30 µM	6.30 to 7.30
Cc1cc(NC(=O)c2c(C)c(C(=O)C(=O)NC3CCC(F)(F)CC3)n(C)c2C)cnc1F [Example 343, 5-(2-((4,4-difluorocyclohexyl)amino)-2-oxoacetyl)-N-(6-fluoro-5-methylpyridin-3-yl)-1,2,4-trimethyl-1H-pyrrole-3-carboxamide]	> 30 µM	6.30 to 7.30
Cc1cc(NC(=O)c2c(C)c(C(=O)C(=O)NCC(C)(C)O)n3c2CCCC3)cnc1F [Example 477, N-(6-fluoro-5-methylpyridin-3-yl)-3-(2-((2-hydroxy-2-methylpropyl)amino)-2-oxoacetyl)-2-methyl-5,6,7,8-tetrahydroindolizine-1-carboxamide]	> 30 µM	< 6.00
Cc1c(C(=O)Nc2ccc(F)c(F)c2)c(C)n(C)c1C(=O)C(=O)Nc1ccc(F)cn1 [Example 295, N-(3,4-difluorophenyl)-5-(2-((5-fluoropyridin-2-yl)amino)-2-oxoacetyl)-1,2,4-trimethyl-1H-pyrrole-3-carboxamide]	5 to 30 µM	> 7.30
Cc1c(C(=O)Nc2ccc(F)c(F)c2)c(C)n(C)c1C(=O)C(=O)N[C@]1(C)CC[C@@H](O)CC1 [Example 706, N-(3,4-difluorophenyl)-5-(2-(((1r,4r)-4-hydroxy-1-methylcyclohexxyl)amino)-2-oxoacetyl)-1,2,4-trimethyl-1H-pyrrole-3-carboxmaide]	> 30 µM	> 7.30
Cc1cc(NC(=O)c2c(Cl)c(C(=O)C(=O)NC(C)(C)CO)n3c2CCC3)cnc1F [Example 575, 6-chloro-N-(6-fluoro-5-methylpyridin-3-yl)-5-(2-((1-hydroxy-2-methylpropan-2-yl)amino)-2-oxoacetyl)-2,3-dihydro-1H-pyrrolizine-7-carboxamide]	> 30 µM	6.00 to 6.30
